Laboratory results reported in PubChem BioAssay (NCI).
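96-well plates; 48 h exposure; 5 concentrations. Endpoints by linear interpolation between flanking doses. Not reached: highest tested concentration assigned. The concentration for full growth arrest is given as TGI.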

What was measured:
Experiment in all cases: NCI-60 cell line screen, 48 h
PC-3 prostate = tested on: PC-3 prostate
HT29 colon = tested on: HT29 colon
COLO 205 colon = tested on: COLO 205 colon
HOP-62 NSCLC = tested on: HOP-62 NSCLC
MCF7 breast = tested on: MCF7 breast
SNB-75 CNS = tested on: SNB-75 CNS
SK-MEL-5 melanoma = tested on: SK-MEL-5 melanoma
SF-539 CNS = tested on: SF-539 CNS
NCI-H23 lung = tested on: NCI-H23 lung
HCT-116 colon = tested on: HCT-116 colon
OVCAR-4 ovarian = tested on: OVCAR-4 ovarian
SNB-19 CNS = tested on: SNB-19 CNS
RXF 393 renal = tested on: RXF 393 renal
A549 NSCLC = tested on: A549 NSCLC
DU-145 prostate = tested on: DU-145 prostate
OVCAR-3 ovarian = tested on: OVCAR-3 ovarian
SK-MEL-28 melanoma = tested on: SK-MEL-28 melanoma
SK-OV-3 ovarian = tested on: SK-OV-3 ovarian
ACHN renal = tested on: ACHN renal
NCI-H226 lung = tested on: NCI-H226 lung
SF-268 CNS = tested on: SF-268 CNS
MDA-MB-435 = tested on: MDA-MB-435
MOLT-4 leukemia = tested on: MOLT-4 leukemia
TK-10 renal = tested on: TK-10 renal
SK-MEL-2 melanoma = tested on: SK-MEL-2 melanoma
BT-549 breast = tested on: BT-549 breast
A498 renal = tested on: A498 renal
HOP-92 NSCLC = tested on: HOP-92 NSCLC
NCI-H460 lung = tested on: NCI-H460 lung
CAKI-1 renal = tested on: CAKI-1 renal
T-47D breast = tested on: T-47D breast
786-0 renal = tested on: 786-0 renal
U251 CNS = tested on: U251 CNS
MDA-N = tested on: MDA-N
UACC-62 melanoma = tested on: UACC-62 melanoma
NCI/ADR-RES ovarian = tested on: NCI/ADR-RES ovarian
EKVX NSCLC = tested on: EKVX NSCLC
UACC-257 melanoma = tested on: UACC-257 melanoma
OVCAR-5 ovarian = tested on: OVCAR-5 ovarian
SF-295 CNS = tested on: SF-295 CNS
HCC-2998 colon = tested on: HCC-2998 colon
SN12C renal = tested on: SN12C renal
IGROV1 ovarian = tested on: IGROV1 ovarian
KM12 colon = tested on: KM12 colon
SW-620 colon = tested on: SW-620 colon
UO-31 renal = tested on: UO-31 renal
M14 melanoma = tested on: M14 melanoma
OVCAR-8 ovarian = tested on: OVCAR-8 ovarian
SR leukemia = tested on: SR leukemia
RPMI-8226 leukemia = tested on: RPMI-8226 leukemia
MDA-MB-231 breast = tested on: MDA-MB-231 breast
HCT-15 colon = tested on: HCT-15 colon
NCI-H522 lung = tested on: NCI-H522 lung
MALME-3M melanoma = tested on: MALME-3M melanoma
CCRF-CEM leukemia = tested on: CCRF-CEM leukemia
HL-60(TB) leukemia = tested on: HL-60(TB) leukemia
K-562 leukemia = tested on: K-562 leukemia
LOX IMVI melanoma = tested on: LOX IMVI melanoma

C=C(C(=O)OC)[C@H]1CC/C(C)=C/CC[C@@](C)(O)C=CC[C@@]2(C)O[C@@H]2C1
TGI (PC-3 prostate): > 100 µM
TGI (HT29 colon): 28.5 µM
TGI (COLO 205 colon): 31 µM
TGI (HOP-62 NSCLC): > 100 µM
TGI (MCF7 breast): > 100 µM
TGI (SNB-75 CNS): > 100 µM
TGI (SK-MEL-5 melanoma): 20.1 µM
TGI (SF-539 CNS): 56.9 µM
TGI (NCI-H23 lung): 61 µM
TGI (HCT-116 colon): 36.6 µM
TGI (OVCAR-4 ovarian): > 100 µM
TGI (SNB-19 CNS): > 100 µM
TGI (RXF 393 renal): > 100 µM
TGI (A549 NSCLC): > 100 µM
TGI (DU-145 prostate): 84.1 µM
TGI (OVCAR-3 ovarian): 42.4 µM
TGI (SK-MEL-28 melanoma): 41 µM
TGI (SK-OV-3 ovarian): > 100 µM
TGI (ACHN renal): > 100 µM
TGI (NCI-H226 lung): > 100 µM
TGI (SF-268 CNS): > 100 µM
TGI (MDA-MB-435): 46.1 µM
TGI (MOLT-4 leukemia): 31.9 µM
TGI (TK-10 renal): > 100 µM
TGI (SK-MEL-2 melanoma): > 100 µM
TGI (BT-549 breast): > 100 µM
TGI (A498 renal): 87.2 µM
TGI (HOP-92 NSCLC): 70.2 µM
TGI (NCI-H460 lung): > 100 µM
TGI (CAKI-1 renal): 50.2 µM
TGI (T-47D breast): > 100 µM
TGI (786-0 renal): 34.8 µM
TGI (U251 CNS): > 100 µM
TGI (MDA-N): > 100 µM
TGI (UACC-62 melanoma): > 100 µM
TGI (NCI/ADR-RES ovarian): 78.6 µM
TGI (EKVX NSCLC): > 100 µM
TGI (UACC-257 melanoma): > 100 µM
TGI (OVCAR-5 ovarian): > 100 µM
TGI (SF-295 CNS): > 100 µM
TGI (HCC-2998 colon): > 100 µM
TGI (SN12C renal): > 100 µM
TGI (IGROV1 ovarian): > 100 µM
TGI (KM12 colon): > 100 µM
TGI (SW-620 colon): > 100 µM
TGI (UO-31 renal): 52.3 µM
TGI (M14 melanoma): > 100 µM
TGI (OVCAR-8 ovarian): 27 µM
TGI (SR leukemia): 33.8 µM
TGI (RPMI-8226 leukemia): 41.5 µM
TGI (MDA-MB-231 breast): > 100 µM
TGI (HCT-15 colon): 73.6 µM

O=C1/C(=C/c2ccc3c(c2)CCC3)Cc2cc3c(cc21)CCC3
TGI (PC-3 prostate): > 100 µM
TGI (HT29 colon): > 100 µM
TGI (COLO 205 colon): > 100 µM
TGI (NCI-H522 lung): > 100 µM
TGI (HOP-62 NSCLC): > 100 µM
TGI (MCF7 breast): > 100 µM
TGI (SNB-75 CNS): > 100 µM
TGI (SK-MEL-5 melanoma): > 100 µM
TGI (SF-539 CNS): > 100 µM
TGI (MALME-3M melanoma): > 100 µM
TGI (NCI-H23 lung): > 100 µM
TGI (CCRF-CEM leukemia): > 100 µM
TGI (HCT-116 colon): > 100 µM
TGI (OVCAR-4 ovarian): > 100 µM
TGI (SNB-19 CNS): > 100 µM
TGI (RXF 393 renal): > 100 µM
TGI (A549 NSCLC): > 100 µM
TGI (DU-145 prostate): > 100 µM
TGI (OVCAR-3 ovarian): > 100 µM
TGI (SK-MEL-28 melanoma): > 100 µM
TGI (SK-OV-3 ovarian): > 100 µM
TGI (HL-60(TB) leukemia): > 100 µM
TGI (ACHN renal): > 100 µM
TGI (NCI-H226 lung): > 100 µM
TGI (SF-268 CNS): > 100 µM
TGI (MDA-MB-435): > 100 µM
TGI (MOLT-4 leukemia): > 100 µM
TGI (TK-10 renal): > 100 µM
TGI (SK-MEL-2 melanoma): > 100 µM
TGI (BT-549 breast): > 100 µM
TGI (A498 renal): > 100 µM
TGI (HOP-92 NSCLC): 97.6 µM
TGI (K-562 leukemia): > 100 µM
TGI (NCI-H460 lung): > 100 µM
TGI (T-47D breast): > 100 µM
TGI (U251 CNS): > 100 µM
TGI (MDA-N): > 100 µM
TGI (UACC-62 melanoma): > 100 µM
TGI (NCI/ADR-RES ovarian): > 100 µM
TGI (EKVX NSCLC): > 100 µM
TGI (UACC-257 melanoma): > 100 µM
TGI (OVCAR-5 ovarian): > 100 µM
TGI (SF-295 CNS): > 100 µM
TGI (HCC-2998 colon): > 100 µM
TGI (SN12C renal): > 100 µM
TGI (IGROV1 ovarian): > 100 µM
TGI (KM12 colon): > 100 µM
TGI (SW-620 colon): > 100 µM
TGI (UO-31 renal): > 100 µM
TGI (M14 melanoma): > 100 µM
TGI (OVCAR-8 ovarian): > 100 µM
TGI (SR leukemia): > 100 µM
TGI (RPMI-8226 leukemia): > 100 µM
TGI (MDA-MB-231 breast): > 100 µM
TGI (HCT-15 colon): > 100 µM
TGI (LOX IMVI melanoma): > 100 µM
